Several values for one entry are separate records, joined by “and”; a condition that tells them apart may be missing. Identical values can stand only once. Entries after “also recorded” stand apart in the source; their conditions may differ.
Columns and labels:
[1] = system: sRANKL induced osteoclast differentiation; assay: In vitro anti-osteoclastogenesis activity determination (TRAP staining); type: cell-based, mouse; set-up: key to inhibition of osteoclastogenesis, dose-response (fig. S2a): % inhibition = 100 − (treated−unstimulated)/(untreated−unstimulated)×100; conditions: for inhibition of osteoclastogenesis, dose-response (fig. S2a): three replicate columns; for IC50: read-out: OC IC50 (anti-osteoclastogenesis activity)
Description: Mouse osteoclasts were cultured according to the previously reported protocols. BMMs were plated in 96-well plates at a density of 6 × 10^3 cells/well with complete medium containing 10 ng/mL M-CSF. The following day, cells were then stimulated with 100 ng/mL sRANKL in the presence or absence of compounds with different concentrations every 2 days until osteoclasts formed. In order to calculate IC50, we set 9 concentrations for each compound and untreated and non-sRANKL unstimulating group as controls, each with triplicated repeated wells. After 5 days, cells were fixed with 4% paraformaldehyde and then applied TRAP-staining to identify osteoclasts by using the TRAP-staining kit. Osteoclasts number (OC No.) in each well was counted and the percentage of inhibition ratio was calculated as follows:1 OCinhibitoryratio%=100−OCNo.treated−OCNo.unstimulating/OCNo.untreated−OCNo.unstimulating×100%
The dosages and their correspondent osteoclastogenesis inhibitory activity curve and IC50 value were conducted by using Nonlinear regression (curve fit) analytic procedure in GraphPad Prism 8. Photographs of individual wells were taken using Leica microscope.

RAW264.7 cells = assay: In vitro cytotoxicity assay (MTT); type: cell-based, mouse; conditions: RAW264.7, MTT
Description: MTT assay was used to determine cell viability. RAW264.7 cells in the logarithmic growth phase were cultured in 96-well plates with 6 × 10^3 cells in each well and incubated for 24 h. The surviving cells were then determined by MTT method. […] Cell growth inhibition ratio was calculated as follows: Cellgrowthinhibitionratio%=ODvehicle−ODtreaed/ODvehicle×100%
Cell cytotoxicity CC50 value were conducted by using Nonlinear regression (curve fit) analytic procedure in GraphPad Prism 8.

[2] = BMMs, M-CSF + 100 ng/mL sRANKL, 5 days, TRAP staining

| Compound | inhibition of osteoclastogenesis, dose-response (fig. S2a) ([1]; conc. 0.0023464 μM) | inhibition of osteoclastogenesis, dose-response (fig. S2a) ([1]; conc. 0.00774313 μM) | inhibition of osteoclastogenesis, dose-response (fig. S2a) ([1]; conc. 0.0255523 μM) | inhibition of osteoclastogenesis, dose-response (fig. S2a) ([1]; conc. 0.0843226 μM) | inhibition of osteoclastogenesis, dose-response (fig. S2a) ([1]; conc. 0.278265 μM) | inhibition of osteoclastogenesis, dose-response (fig. S2a) ([1]; conc. 0.918274 μM) | inhibition of osteoclastogenesis, dose-response (fig. S2a) ([1]; conc. 3.0303 μM) | inhibition of osteoclastogenesis, dose-response (fig. S2a) ([1]; conc. 10 μM) | inhibition of osteoclastogenesis, dose-response (fig. S2a) ([1]; conc. 33 μM) | CC50 (RAW264.7 cells) [µM] | IC50 [1, 2] | OC IC50 (anti-osteoclastogenesis activity) [1, 2] |
| --- | --- | --- | --- | --- | --- | --- | --- | --- | --- | --- | --- | --- |
| CCOC(=O)c1sc(NC(=O)C(=NNc2ccccc2C(=O)OC)C(C)=O)nc1C [S3-00] | 7.803 and 2.07 and 1.592 | 3.981 and 7.325 and 13.535 | -1.274 and 4.936 and 3.025 | 10.6688 and 9.713 and 2.07 | 4.936 and 4.4586 and 8.758 | 21.1783 and 12.5796 and 14.9681 | 46.9745 and 43.6306 and 45.5414 | 57.4841 and 67.9936 and 66.5605 | 93.3121 and 95.2229 and 92.8344 | 57.2 |  |  |
| CCOC(=O)c1sc(NC(=O)C(=NNc2ccccc2O)C(C)=O)nc1C [S3-06] | -2.117 and 4.235 and 7.166 | 2.28 and -2.606 and 3.746 | 1.792 and 3.746 and -0.1629 | 4.723 and 7.166 and -1.14 | 27.1987 and 24.2671 and 26.2215 | 39.4137 and 37.4593 and 42.3453 | 68.7296 and 60.9121 and 64.3322 | 81.9218 (2×) and 82.899 | 100 | 202 | 1400 nM |  |
| CCOC(=O)c1sc(NC(=O)C(=NNc2ccccc2CO)C(C)=O)nc1C [S3-07] |  |  |  |  |  |  |  |  |  | 49.1 | 2330 nM | inactive; also recorded: lose osetoclastogenesis inhibitory activities |
| CC(=O)C(=NNc1ccccc1C(=O)O)C(=O)Nc1nc(C)cs1 [S3-08] | 1.304 and -3.21 and -2.307 | 3.711 and 2.508 and 1.304 | 3.109 and 3.41 and 5.517 | 6.118 and 6.419 and 8.225 | 18.7563 and 19.0572 and 20.2608 | 29.8897 and 31.0933 and 35.005 | 50.9529 and 40.7222 and 44.6339 | 83.7512 and 85.2558 and 78.6359 | 100 | > 100 | 2330 nM and 2340 nM |  |
| CCOC(=O)c1sc(NC(=O)C(=NNc2cc(C)ccc2C(=O)O)C(C)=O)nc1C [S3-10] | 3.829 and 3.173 and -0.4376 | 4.486 and 2.516 and 3.173 | 5.142 and 3.173 and 7.1116 | 9.409 and 8.096 and 12.3632 | 13.6761 and 23.1947 and 19.256 | 34.0263 and 27.4617 (2×) | 35.3392 and 33.3698 and 37.6368 | 87.1991 and 82.6039 and 90.1532 | 100 | 41.1 |  |  |
| CCOC(=O)c1sc(NC(=O)C(=NNc2c(C)cccc2C(=O)O)C(C)=O)nc1C [S3-11] | 6.678 and -7.003 and 1.303 | -5.049 and 1.792 and -0.6515 | -0.6515 and 3.257 and 0.3257 | 5.212 and -2.117 and 3.746 | 16.4495 and 15.9609 and 19.3811 | 28.1759 and 21.3355 and 30.1303 | 50.1629 and 34.5277 and 49.6743 | 97.557 and 94.1368 and 98.0456 | 100 | 75.2 |  |  |
| CC(=O)C(=NNc1ccccc1C(=O)[O-])C(=O)Nc1nc(C)cs1.[Na+] [S3-12] | 4.4898 and 6.02 and -2.2449 | 6.939 and -1.02 and -1.633 | 4.796 and 0.8163 and -3.469 | 37.8571 and 16.4286 and 7.857 | 39.3878 and 32.9592 and 21.3265 | 55.3061 and 47.3469 and 54.0816 | 74.2857 and 67.551 and 64.4898 | 94.7959 and 77.0408 and 85 | 100 | 65.8 |  |  |
| CCOC(=O)c1sc(NC(=O)C(=NNc2ccc(C)cc2C(=O)O)C(C)=O)nc1C [S3-13] | 1.735 and -0.7143 and 2.347 | 1.735 and -2.551 and 3.571 | 7.857 and -4.694 and -0.102 | 11.8367 and 3.878 and -9.592 | 11.2245 and 7.551 and -1.327 | 7.2449 and 6.633 and 3.571 | 7.2449 and 2.959 and -1.327 | 47.6531 and 40.3061 and 42.7551 | 100 | > 100 | 10700 nM |  |
| CCOC(=O)c1sc(NC(=O)C(=NNc2ccc(F)cc2C(=O)O)C(C)=O)nc1C [S3-14] | 3.265 and -2.857 and -2.551 | 7.2449 and 0.2041 and -2.857 | 7.2449 and 2.041 and 14.2857 | 37.8571 and 28.9796 and 23.4694 | 54.3878 and 61.4286 and 45.8163 | 73.9796 and 67.2449 and 59.2857 | 88.9796 and 96.3265 and 87.7551 | 98.4694 and 95.7143 and 97.551 | 100 | 76.2 | 270 nM |  |
| CC(=O)C(=NNc1ccccc1C(=O)O)C(=O)Nc1ccc(C#N)cn1 [S3-15-1] | 2.8169 and -0.3521 and -2.465 | 2.113 and 9.859 and 10.5634 | 19.3662 and 16.1972 and 17.6056 | 28.169 and 26.7606 and 24.2958 | 28.169 (2×) and 24.2958 | 45.0704 and 44.7183 (2×) | 59.8591 and 57.7465 and 60.9155 | 77.4648 and 79.5775 and 76.0563 | 100 | 81.2 | 1050 nM |  |
| COC(=O)c1cccc(NC(=O)C(=NNc2ccccc2C(=O)O)C(C)=O)n1 [S3-15-2] | 11.9718 and 6.338 and 4.225 | 7.394 and 8.4507 and 9.155 | 9.507 and 6.338 and 9.155 | 31.6901 and 21.831 and 24.2958 | 33.0986 and 27.4648 and 28.169 | 47.1831 and 47.5352 and 44.3662 | 59.1549 (2×) and 58.0986 | 72.8873 and 71.1268 and 70.4225 | 88.3803 and 89.4366 and 88.7324 | > 100 | 1260 nM |  |
| CC(=O)C(=NNc1ccc(O)cc1C(=O)O)C(=O)Nc1ccccn1 [S3-15-3] | 7.632 and 19.0789 and 12.7632 | 4.079 and 5.263 and 2.105 | 2.105 and -3.421 and -3.026 | 11.579 and 29.3421 and 8.026 | 15.5263 and 26.9737 and 19.0789 | 44.7368 and 36.4474 and 37.6316 | 52.6316 and 53.8158 and 45.1316 | 64.4737 and 56.1842 and 57.3684 | 73.9474 and 72.3684 and 70.7895 | 62.8 | 3590 nM |  |

Source: article PMC9468151, “Identification of a binding site on soluble RANKL that can be targeted to inhibit soluble RANK-RANKL interactions and treat osteoporosis” (Nature Communications, 2022)
